Experiments:
[1] = molecular target: T1, LPLA2 (Canis lupus familiaris, UniProt Q6XPZ3); assay: LPLA2 activity in MDCK cells treated with cationic amphiphilic drugs, measured as transacylation of N-acetylsphingosine; assay type: cell-based
T1 construct: endogenous in cells; host or cells: MDCK cells
T1 sequence (Q6XPZ3 32-408): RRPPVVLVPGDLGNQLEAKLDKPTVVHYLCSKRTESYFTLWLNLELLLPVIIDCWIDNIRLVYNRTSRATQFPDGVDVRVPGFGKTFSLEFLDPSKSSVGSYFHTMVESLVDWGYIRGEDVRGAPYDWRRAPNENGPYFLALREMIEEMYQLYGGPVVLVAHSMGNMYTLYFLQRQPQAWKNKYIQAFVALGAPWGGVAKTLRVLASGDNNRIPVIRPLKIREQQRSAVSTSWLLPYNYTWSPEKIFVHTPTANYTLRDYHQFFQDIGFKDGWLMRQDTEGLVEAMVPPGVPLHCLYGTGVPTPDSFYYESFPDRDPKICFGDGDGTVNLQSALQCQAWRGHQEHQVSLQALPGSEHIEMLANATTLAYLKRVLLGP
Protocol: LPLA2 activity was measured as the transacylation of N-acetylsphingosine. […] The major cellular phospholipids were assayed following 1 or 7 days of exposure to the CAD.

[2] = tested on: acidic transacylation of ceramide; conditions: lysosomal fraction of cells; earlier observation; cited from earlier work
[3] = molecular target: T2, recombinant mouse LPLA2 (Mus musculus, UniProt Q8VEB4); assay: Co-sedimentation of LPLA2 with liposomes (ultracentrifugation, SDS-PAGE); assay type: binding; conditions: DOPC or DOPC/sulfatide (10:1) liposomes; 33 μM amiodarone; FIGS. 13B and 13C
T2 sequence (Q8VEB4 34-412): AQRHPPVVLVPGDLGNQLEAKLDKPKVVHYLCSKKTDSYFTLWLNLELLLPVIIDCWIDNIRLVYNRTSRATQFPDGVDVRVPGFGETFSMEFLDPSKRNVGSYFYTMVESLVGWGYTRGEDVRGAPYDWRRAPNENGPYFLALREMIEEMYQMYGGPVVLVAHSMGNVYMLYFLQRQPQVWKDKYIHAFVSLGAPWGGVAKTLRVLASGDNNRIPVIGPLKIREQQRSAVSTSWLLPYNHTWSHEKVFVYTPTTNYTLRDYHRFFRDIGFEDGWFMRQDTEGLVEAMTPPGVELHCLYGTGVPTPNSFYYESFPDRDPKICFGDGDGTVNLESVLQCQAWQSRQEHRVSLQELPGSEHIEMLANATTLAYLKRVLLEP
Protocol: Liposomes consisting of DOPC or DOPC/sulfatide (10:1, molar ratio) were incubated with varying amounts of recombinant mouse LPLA2 in 500 μl of 48 mM Na-citrate (pH 4.5) for 30 min on ice (FIG. 13A). […] The reaction mixtures were centrifuged for 1 h at 150,000 g at 4° C. The concentration of DOPC in these assays was 127 μM. The resultant precipitates were briefly washed with cold 50 mM Na-citrate (pH 4.5) and dissolved with 40 μl of SDS-polyacrylamide gel electrophoresis sampling buffer. The samples were separated by using 12% SDS-polyacrylamide gel. After electrophoresis, LPLA2 was detected by staining with CBB.

[4] = molecular target: T3, LPLA2 (Homo sapiens, UniProt Q8NCC3); conditions: background description; cited from earlier work
T3 sequence (Q8NCC3 34-412): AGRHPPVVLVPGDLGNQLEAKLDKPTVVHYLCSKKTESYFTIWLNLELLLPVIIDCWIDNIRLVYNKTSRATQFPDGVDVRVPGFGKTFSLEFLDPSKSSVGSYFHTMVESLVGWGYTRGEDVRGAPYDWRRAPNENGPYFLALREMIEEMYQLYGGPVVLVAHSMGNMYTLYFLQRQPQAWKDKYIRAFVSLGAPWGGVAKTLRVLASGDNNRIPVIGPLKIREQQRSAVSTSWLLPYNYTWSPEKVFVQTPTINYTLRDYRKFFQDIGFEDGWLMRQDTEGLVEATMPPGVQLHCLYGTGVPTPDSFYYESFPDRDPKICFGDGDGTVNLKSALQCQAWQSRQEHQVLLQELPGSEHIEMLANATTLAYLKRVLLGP

[5] = tested on: LPLA2 null alveolar macrophages; assay: Uptake of recombinant LPLA2 into LPLA2 null alveolar macrophages (Western blotting, confocal microscopy, enzyme activity); assay type: cell-based, mouse
Text: Recombinant glycosylated mouse LPLA2 produced by HEK293 cells was applied to LPLA2-deficient (LPLA2−/−) mouse alveolar macrophages. […] Thus, the predominant pathway for uptake of exogenous LPLA2 is via the mannose receptor. (Abe et al., J. Immunol, 181(11):7873-81, 2008).
The ability of macrophages from LPLA2−/− mice to recognize, endocytose, and traffic recombinant LPLA2 was studied as follows. LPLA2 null alveolar macrophages were exposed to His-tagged mouse LPLA2 for 1 day at concentrations varying between 0.3 and 10 μg/ml. Cell incorporation was measured by Western blotting and confocal microscopy using either anti-His antibody or a monoclonal antibody raised to LPLA2.
(§1) Finally, the ability of the recombinant enzyme to “rescue” the cellular phenotype was confirmed by measuring the cellular phospholipid content.

[6] = tested on: LPLA2 null alveolar macrophages; conditions: Abe et al. J. Immunol 2008; cited from earlier work
[7] = molecular target: T2, recombinant mouse LPLA2; assay: 1-O-acylceramide synthase (transacylase) activity of recombinant LPLA2 on liposomes, 1-O-oleoyl-NAS by HPTLC; assay type: biochemical; conditions: DOPC/sulfatide/NAS liposomes vs DOPC/NAS, pH 4.5, 5-45 min at 37° C.; FIGS. 11A and 11B
Protocol: To address this possibility, the 1-O-acylceramide synthase activity of LPLA2 was studied in liposomes in which the anionic lipid content was varied by the addition of sulfatide, a negatively charged, sulfate containing glycolipid that is not a substrate for LPLA2. Di-octanoyl-PC (DOPC) was used as the liposomal substrate. The reaction mixture contained 48 mM sodium citrate (pH 4.5), 10 μg/ml BSA, liposomes (127 μM phospholipid) and 14.5 ng/ml of recombinant mouse LPLA2 in 500 μl of total volume. Liposomes consisting of DOPC/NAS (3:1, molar ratio) or DOP/sulfatide/NAS (3:0.3:1, molar ratio) were incubated with the enzyme for 5, 10, 15, 30 and 45 min at 37° C. The reaction products were extracted and separated by an HPTLC plate using a solvent system consisting of chloroform/acetic acid (9:1, v/v). The reaction product, 1-O-oleoyl-NAS, quantified by scanning the plate, was plotted against time (FIG. 11A). Liposomes consisting of DOPC/galactosylceramide/NAS or DOPC/sulfatide/NAS with a different molar ratio were incubated with the recombinant enzyme at 37° C. (FIG. 11B).

[8] = tested on: LPLA2 null alveolar macrophages; assay: Rescue of cellular phospholipid content in LPLA2 null alveolar macrophages by recombinant enzyme; assay type: cell-based, mouse; conditions: LPLA2 null alveolar macrophages treated with enzyme
Text: as §1

Molecule: CCCCCCCCCC(=O)NC(CN1CCOCC1)C(O)c1ccccc1 (centres unmarked) [PDMP, 1-phenyl-2-decanoylamino-3-morpholino-1-propanol]
- inhibition of LPLA2 activity as measured by ceramide transacylation ([1]; MDCK cells treated for 1 or seven days, FIG. 10A): concentration dependent inhibition of LPLA2 activity
- IC50 for enzyme inhibition ([1]; MDCK cells, no numbers given): comparable IC50s
- inhibition of acidic transacylation of ceramide [2]: inhibit acidic transacylation of ceramide

Molecule: CCCCc1oc2ccccc2c1C(=O)c1cc(I)c(OCCN(CC)CC)c(I)c1 [amiodarone]
- physical association between LPLA2 and liposomes [3]: inhibited

Molecule: O=C1O/C(=C/Br)CCC1c1cccc2ccccc12 (centres unmarked) [bromoenollactone]
- inhibition of LPLA2 enzyme activity [4]: do not inhibit the enzyme activity

Molecule: CCCCC/C=C\C/C=C\C/C=C\C/C=C\CCCC(=O)C(F)(F)F [nonadecyltetraenyl trifluoromethyl ketone]
- inhibition of LPLA2 enzyme activity [4]: do not inhibit the enzyme activity

Molecule: COC1O[C@H](CO)[C@@H](O)[C@H](O)[C@@H]1O (stereo partly drawn) [α-Methyl-mannoside, α-methyl-mannoside]
- blocking of incorporation of recombinant LPLA2 ([5]; 10 mM, 1-O-acyl-ceramide synthase activity, immunoblotting, confocal microscopy): blocked the incorporation of LPLA2
- suppression of uptake of exogenous LPLA2 [6]: significantly suppressed

Molecule: sulfatide
- physical association between LPLA2 and liposomes [3]: increased
- transacylation activity in presence of anionic lipid [7]: time dependent increase in the transacylation activity

B1: Recombinant glycosylated mouse LPLA2: Recombinant glycosylated mouse LPLA2 produced by HEK293 cells (protein, UniProt Q8VEB4 34-412, looked up)
Lysosomal phospholipase A and …: T2 sequence (Q8VEB4 34-412)
modifications: HEK293-produced glycosylated
notes: Recombinant glycosylated mouse LPLA2 produced by HEK293 cells
- uptake of exogenous LPLA2 into LPLA2−/− alveolar macrophages [6]: occurred in a concentration-dependent manner

B2: His-tagged mouse LPLA2: His-tagged recombinant mouse lysosomal phospholipase A2 applied to LPLA2 null alveolar macrophages (protein)
chain: T2 sequence (Q8VEB4 34-412)
modifications: left off: small tags and cut ends
notes: His-tagged recombinant mouse lysosomal phospholipase A2 applied to LPLA2 null alveolar macrophages
- cellular LPLA2 (cell incorporation) ([5]; 1 day at 0.3 to 10 μg/ml, Western blotting, confocal microscopy, enzyme activity): concentration dependent increase in cellular LPLA2
- co-localization with lysosome protein Lamp-1 ([5]; cells stained with anti-LPLA2 and Lamp-1 antibodies): readily detected
- cell phosphatidylcholine and phosphatidylethanolamine content [8]: concentration dependent decrease in cell phosphatidylcholine and phosphatidylethanolamine
